For nine cell lines, relative viability results are on record in the supplement of paper PMC10307832.

Holding throughout (assay): relative viability (nuclei count vs DMSO), 5 days (fraction); higher = more cells survive
Compound in experiment [1]: C1CNCCC1C2=CC(=NN2)C3=CC=NC=C3 + COc1cccc2cc(-c3nc([C@H]4CC[C@H](C(=O)O)CC4)n4ncnc(N)c34)[nH]c12 [OSI-027] (partner 0.5 µM)
Summed up:
(§1)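 Lung cancer cell lines were pin-tool dosed in 1536-well plates on the day after seeding, with either a lone drug or a fixed anchor-drug dose plus five library-drug doses (not always all listed) in √10 steps. Nuclei were counted on 4× images after 5 days. Relative viability is the ratio of treated-well to vehicle-well nuclei counts, with each value a median of duplicate plates.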

Compound in experiment [2]: C[C@@H](N)c1ccc(C(=O)Nc2ccnc3[nH]ccc23)cc1 + Nc1ncn([C@H]2C[C@H](O)[C@@H](CO)O2)c(=O)n1 [Decitabine] (partner 2 µM)
Summed up: as §1

Compound in the experiment “Tanzisertib + Foretinib”: O[C@H]1CC[C@H](Nc2ncc3nc(Nc4c(F)cc(F)cc4F)n([C@H]4CCOC4)c3n2)CC1 [Tanzisertib] + COc1cc2c(Oc3ccc(NC(=O)C4(C(=O)Nc5ccc(F)cc5)CC4)cc3F)ccnc2cc1OCCCN1CCOCC1 [Foretinib] (partner 0.25 µM)
Summed up: as §1

Compound in experiment [3]: C1CNCCC1C2=CC(=NN2)C3=CC=NC=C3 + Nc1ncn([C@H]2C[C@H](O)[C@@H](CO)O2)c(=O)n1 [Decitabine] (partner 2 µM)
Summed up:
as §1

Take 201T: the relative viability turned out to be 0.72 in experiment [1] (first compound 0.08 µM); 0.718 in experiment [1] (first compound 0.8 µM); 0.832 in experiment [1] (first compound 2.53 µM); 0.842 in experiment [1] (first compound 8 µM); 0.846 in experiment [2] (first compound 0.04 µM); 0.853 in experiment [2] (first compound 0.1265 µM). Further, the relative viability in experiment [2] (first compound 0.4 µM) amounted to 0.851; in experiment [2] (first compound 1.265 µM), 0.979; in experiment [2] (first compound 4 µM), 0.941; with Tanzisertib + Foretinib (first compound 0.08 µM), 1.2; in the experiment with Tanzisertib + Foretinib (first compound 0.253 µM) it was 1.08; with Tanzisertib + Foretinib (first compound 0.8 µM), 1.12. Also, the relative viability with Tanzisertib + Foretinib (first compound 2.53 µM) was 1.11; with Tanzisertib + Foretinib (first compound 8 µM), 0.978; in experiment [3] (first compound 0.08 µM), 0.835; in experiment [3] (first compound 0.8 µM) it was 0.857; in experiment [3] (first compound 2.53 µM), 0.846; in experiment [3] (first compound 8 µM), 0.866.
As for A549, the relative viability was 0.343 in experiment [2] (first compound 0.04 µM); 0.254 in experiment [2] (first compound 0.1265 µM); 0.374 in experiment [2] (first compound 0.4 µM); 0.316 in experiment [2] (first compound 1.265 µM); 0.286 in experiment [2] (first compound 4 µM); 0.98 with Tanzisertib + Foretinib (first compound 0.08 µM). Besides, the relative viability with Tanzisertib + Foretinib (first compound 0.253 µM) came to 0.951; with Tanzisertib + Foretinib (first compound 0.8 µM), 0.97; with Tanzisertib + Foretinib (first compound 2.53 µM) it was 0.87; in the experiment with Tanzisertib + Foretinib (first compound 8 µM), 0.839; in experiment [3] (first compound 0.08 µM) it was 0.208; in experiment [3] (first compound 0.8 µM), 0.282. The relative viability was 0.302 in experiment [3] (first compound 2.53 µM) and 0.146 in experiment [3] (first compound 8 µM).
With A-427, the relative viability turned out to be 0.463 in experiment [1] (first compound 0.08 µM); 0.477 in experiment [1] (first compound 0.8 µM); 0.473 in experiment [1] (first compound 2.53 µM); 0.499 in experiment [1] (first compound 8 µM); 0.499 in experiment [2] (first compound 0.04 µM); 0.564 in experiment [2] (first compound 0.1265 µM). The relative viability was 0.549 in experiment [2] (first compound 0.4 µM); 0.517 in experiment [2] (first compound 1.265 µM); 0.545 in experiment [2] (first compound 4 µM); 1.18 with Tanzisertib + Foretinib (first compound 0.08 µM); 1.05 with Tanzisertib + Foretinib (first compound 0.253 µM); 1.02 in the experiment with Tanzisertib + Foretinib (first compound 0.8 µM). Moreover, the relative viability amounted to 0.939 with Tanzisertib + Foretinib (first compound 2.53 µM); 1.04 in the experiment with Tanzisertib + Foretinib (first compound 8 µM); 0.557 in experiment [3] (first compound 0.08 µM); 0.603 in experiment [3] (first compound 0.8 µM); 0.578 in experiment [3] (first compound 2.53 µM); 0.498 in experiment [3] (first compound 8 µM).
For ABC-1, the relative viability in experiment [1] (first compound 0.08 µM) is 0.556; in experiment [1] (first compound 0.8 µM) it was 0.484; in experiment [1] (first compound 2.53 µM), 0.65; in experiment [1] (first compound 8 µM), 0.575; in experiment [2] (first compound 0.04 µM), 1.2; in experiment [2] (first compound 0.1265 µM), 0.895. In addition, the relative viability in experiment [2] (first compound 0.4 µM) stood at 1.13; in experiment [2] (first compound 1.265 µM), 1.46; in experiment [2] (first compound 4 µM), 1.46; in the experiment with Tanzisertib + Foretinib (first compound 0.08 µM), 0.91; with Tanzisertib + Foretinib (first compound 0.253 µM) it was 1.14; with Tanzisertib + Foretinib (first compound 0.8 µM), 0.909. For the same cell line, the relative viability in the experiment with Tanzisertib + Foretinib (first compound 2.53 µM) was determined as 0.876; in the experiment with Tanzisertib + Foretinib (first compound 8 µM), 0.706; in experiment [3] (first compound 0.08 µM), 1.23; in experiment [3] (first compound 0.8 µM) it was 1.02; in experiment [3] (first compound 2.53 µM) it was 1.32; in experiment [3] (first compound 8 µM), 1.08.
In the case of BEN, the relative viability in experiment [1] (first compound 0.08 µM) turned out to be 0.303; in experiment [1] (first compound 0.8 µM), 0.295; in experiment [1] (first compound 2.53 µM) it was 0.233; in experiment [1] (first compound 8 µM) it was 0.33; in experiment [2] (first compound 0.04 µM), 0.53; in experiment [2] (first compound 0.1265 µM), 0.732. For the same cell line, the relative viability in experiment [2] (first compound 0.4 µM) amounted to 0.822; in experiment [2] (first compound 1.265 µM), 0.757; in experiment [2] (first compound 4 µM), 0.568; in the experiment with Tanzisertib + Foretinib (first compound 0.08 µM), 0.619; with Tanzisertib + Foretinib (first compound 0.253 µM), 0.75; in the experiment with Tanzisertib + Foretinib (first compound 0.8 µM), 0.679. The relative viability with Tanzisertib + Foretinib (first compound 2.53 µM) was 0.766; with Tanzisertib + Foretinib (first compound 8 µM), 0.828; in experiment [3] (first compound 0.08 µM), 0.676; in experiment [3] (first compound 0.8 µM), 0.652; in experiment [3] (first compound 2.53 µM), 0.779; in experiment [3] (first compound 8 µM), 0.777.
CAL-12T: the relative viability in experiment [1] (first compound 0.08 µM) stood at 0.823; in experiment [1] (first compound 0.8 µM), 0.866; in experiment [1] (first compound 2.53 µM), 0.84; in experiment [1] (first compound 8 µM), 0.839; with Tanzisertib + Foretinib (first compound 0.08 µM), 1.11; with Tanzisertib + Foretinib (first compound 0.253 µM) it was 1.13. The relative viability was found to be 1.05 with Tanzisertib + Foretinib (first compound 0.8 µM), 1.25 with Tanzisertib + Foretinib (first compound 2.53 µM) and 1.07 in the experiment with Tanzisertib + Foretinib (first compound 8 µM).
In the case of COR-L23, the relative viability in experiment [1] (first compound 0.08 µM) was 0.691; in experiment [1] (first compound 0.8 µM) it was 1.01; in experiment [1] (first compound 2.53 µM), 0.761; in experiment [1] (first compound 8 µM), 0.73; in experiment [2] (first compound 0.04 µM), 0.385; in experiment [2] (first compound 0.1265 µM) it was 0.441. The relative viability in experiment [2] (first compound 0.4 µM) was determined as 0.421; in experiment [2] (first compound 1.265 µM) it was 0.393; in experiment [2] (first compound 4 µM), 0.305; with Tanzisertib + Foretinib (first compound 0.08 µM), 1.01; in the experiment with Tanzisertib + Foretinib (first compound 0.253 µM), 0.966; with Tanzisertib + Foretinib (first compound 0.8 µM), 1. Further, the relative viability worked out at 1.13 with Tanzisertib + Foretinib (first compound 2.53 µM); 1 in the experiment with Tanzisertib + Foretinib (first compound 8 µM); 0.424 in experiment [3] (first compound 0.08 µM); 0.429 in experiment [3] (first compound 0.8 µM); 0.516 in experiment [3] (first compound 2.53 µM); 0.47 in experiment [3] (first compound 8 µM).
On to COR-L 105, for which the relative viability was 0.694 in experiment [1] (first compound 0.08 µM); 0.678 in experiment [1] (first compound 0.8 µM); 0.925 in experiment [1] (first compound 2.53 µM); 0.664 in experiment [1] (first compound 8 µM); 0.651 in experiment [2] (first compound 0.04 µM); 0.674 in experiment [2] (first compound 0.1265 µM). The relative viability in experiment [2] (first compound 0.4 µM) was determined as 0.627; in experiment [2] (first compound 1.265 µM), 0.495; in experiment [2] (first compound 4 µM), 0.526; in the experiment with Tanzisertib + Foretinib (first compound 0.08 µM) it was 0.99; with Tanzisertib + Foretinib (first compound 0.253 µM), 1.03; in the experiment with Tanzisertib + Foretinib (first compound 0.8 µM), 1.32. Also, the relative viability with Tanzisertib + Foretinib (first compound 2.53 µM) came to 1.27; with Tanzisertib + Foretinib (first compound 8 µM), 0.719; in experiment [3] (first compound 0.08 µM), 0.568; in experiment [3] (first compound 0.8 µM), 0.729; in experiment [3] (first compound 2.53 µM), 0.687; in experiment [3] (first compound 8 µM), 0.772.
On to Calu-6, for which the relative viability with Tanzisertib + Foretinib (first compound 0.08 µM) worked out at 0.955; in the experiment with Tanzisertib + Foretinib (first compound 0.253 µM), 0.951; in the experiment with Tanzisertib + Foretinib (first compound 0.8 µM), 0.799; in the experiment with Tanzisertib + Foretinib (first compound 2.53 µM), 0.841; with Tanzisertib + Foretinib (first compound 8 µM) it was 0.789.
